Where a name gives a salt, the structure may show the parent alone.
Biological target: hCereblon(M1-L442)_hDDB1(M1-H1140) (Homo sapiens (Human), UniProt Q96SW2)
Test: Fluorescence direct binding protocol (tryptophan fluorescence titration)
Settings: fluorescence titration at 20° C., excited at 280 nm, recorded at 340 nm; protein 5.0 E−8 M; assay buffer 50 mM Hepes 7.4 200 mM NaCl; read-out: Fluorescence h-Cereblon_DDB1 Mean Kd_EQ
Summary of the method: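 At 20° C., protein at constant concentration was titrated with ligand in DMSO over at least 12 steps, exciting tryptophan at 280 nm and reading emission at 340 nm. Intensities were corrected for dilution and filter effect, and Kd was fitted assuming 1:1 binding.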

hCereblon(M1-L442)_hDDB1(M1-H1140), sequence (Q96SW2 whole entry): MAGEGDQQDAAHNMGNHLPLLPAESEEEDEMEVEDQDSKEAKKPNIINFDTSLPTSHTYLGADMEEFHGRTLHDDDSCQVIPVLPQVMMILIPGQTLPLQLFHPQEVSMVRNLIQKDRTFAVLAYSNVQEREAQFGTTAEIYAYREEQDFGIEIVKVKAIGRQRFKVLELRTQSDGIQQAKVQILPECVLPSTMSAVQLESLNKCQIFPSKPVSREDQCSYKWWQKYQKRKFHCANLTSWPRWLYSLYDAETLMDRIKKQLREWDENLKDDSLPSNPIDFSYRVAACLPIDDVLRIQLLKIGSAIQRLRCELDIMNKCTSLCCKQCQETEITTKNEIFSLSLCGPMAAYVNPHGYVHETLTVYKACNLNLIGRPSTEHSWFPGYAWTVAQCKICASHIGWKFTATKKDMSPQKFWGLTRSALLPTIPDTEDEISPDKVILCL
hCereblon(M1-L442)_hDDB1(M1-H1140), sequence (Q16531 whole entry partner): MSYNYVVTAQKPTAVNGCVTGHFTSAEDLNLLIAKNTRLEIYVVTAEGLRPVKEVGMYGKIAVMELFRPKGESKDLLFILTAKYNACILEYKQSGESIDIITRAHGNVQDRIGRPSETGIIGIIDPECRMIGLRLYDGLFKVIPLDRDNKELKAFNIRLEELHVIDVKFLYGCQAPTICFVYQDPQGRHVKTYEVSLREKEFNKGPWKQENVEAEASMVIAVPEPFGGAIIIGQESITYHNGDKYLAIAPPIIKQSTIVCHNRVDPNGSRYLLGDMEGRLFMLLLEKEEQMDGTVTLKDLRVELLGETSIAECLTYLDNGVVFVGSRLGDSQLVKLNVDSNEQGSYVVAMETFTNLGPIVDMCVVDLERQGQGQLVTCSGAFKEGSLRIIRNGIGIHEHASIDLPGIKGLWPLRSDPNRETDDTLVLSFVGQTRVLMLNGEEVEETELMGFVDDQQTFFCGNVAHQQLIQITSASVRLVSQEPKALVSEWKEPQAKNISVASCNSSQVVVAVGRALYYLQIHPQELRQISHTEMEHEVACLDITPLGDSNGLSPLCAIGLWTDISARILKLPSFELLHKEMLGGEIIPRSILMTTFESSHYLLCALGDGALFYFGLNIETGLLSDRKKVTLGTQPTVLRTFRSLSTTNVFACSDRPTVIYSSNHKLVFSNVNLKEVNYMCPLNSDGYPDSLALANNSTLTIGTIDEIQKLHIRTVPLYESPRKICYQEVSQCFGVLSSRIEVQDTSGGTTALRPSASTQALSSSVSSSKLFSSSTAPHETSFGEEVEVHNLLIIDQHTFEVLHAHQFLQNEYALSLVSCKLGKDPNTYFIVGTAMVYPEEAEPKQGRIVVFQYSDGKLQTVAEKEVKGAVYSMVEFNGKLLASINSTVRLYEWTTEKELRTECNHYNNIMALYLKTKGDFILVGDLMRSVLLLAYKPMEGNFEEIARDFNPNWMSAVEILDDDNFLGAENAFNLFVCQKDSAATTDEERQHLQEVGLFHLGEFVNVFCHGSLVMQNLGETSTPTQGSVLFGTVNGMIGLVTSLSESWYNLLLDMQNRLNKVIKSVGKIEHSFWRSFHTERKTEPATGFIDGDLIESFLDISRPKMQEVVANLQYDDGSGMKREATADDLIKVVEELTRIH

| Compound | Kd |
| --- | --- |
| O=C(c1nc2ccccc2n1-c1ccc2[nH]c(=O)[nH]c2c1)N1CCCCC1 [Example 103, 5-[2-(Piperidine-1-carbonyl)benzimidazol-1-yl]-1,3-dihydrobenzimidazol-2-one] | 35 nM |
| O=c1[nH]c2cc(-c3ccccc3OCc3ccccc3)cnc2[nH]1 [Example 104, 6-(2-(Benzyloxy)phenyl)-1,3-dihydro-2H-imidazo[4,5-b]pyridin-2-one] | 14 nM |
| O=C(Nc1ccc2[nH]c(=O)[nH]c2c1)N1CCc2ccccc21 [Example 105, N-(2-Oxo-2,3-dihydro-1H-benzo[d]imidazol-5-yl)indoline-1-carboxamide] | 4 nM |
| CNS(=O)(=O)c1ccc(CC(=O)Nc2ccc3[nH]c(=O)[nH]c3c2)cc1 [Example 106, 2-(4-(N-Methylsulfamoyl)phenyl)-N-(2-oxo-2,3-dihydro-1H-benzo[d]imidazol-5-yl)acetamide] | 1 nM |
| COC(=O)c1ccc2c(c1)nc(-c1cc(-c3cncn3C)nc3ccccc13)n2-c1ccc2[nH]c(=O)[nH]c2c1 [Example 107, Methyl 2-(2-(1-methyl-1H-imidazol-5-yl)quinolin-4-yl)-2′-oxo-2′,3′-dihydro-1′H-[1,5′-bibenzo[d]imidazole]-5-carboxylate] | 831 nM |
| CNC(=O)c1ccc2c(c1)nc(-c1ccnc(OC)c1)n2-c1ccc2[nH]c(=O)[nH]c2c1 [Example 108, 2-(2-Methoxypyridin-4-yl)-N-methyl-2′-oxo-2′,3′-dihydro-1′H-[1,5′-bibenzo[d]imidazole]-5-carboxamide] | 107 nM |
| CNC(=O)c1cccc2c1CCCN2C(=O)Nc1ccc2[nH]c(=O)[nH]c2c1 [Example 109, N5-Methyl-N1-(2-oxo-2,3-dihydro-1H-benzo[d]imidazol-5-yl)-3,4-dihydroquinoline-1,5(2H)-dicarboxamide] | 39 nM |
| O=C1c2ccc(Br)cc2CN1c1ccc2[nH]c(=O)[nH]c2c1 [Example 110, 5-(5-Bromo-1-oxo-isoindolin-2-yl)-1,3-dihydrobenzimidazol-2-one] | 29 nM |
| CCOC(=O)c1ccc2c(c1)CN(c1ccc3[nH]c(=O)[nH]c3c1)C2=O [Example 111, Ethyl 1-oxo-2-(2-oxo-1,3-dihydrobenzimidazol-5-yl)isoindoline-5-carboxylate] | 18 nM |
| COC(=O)c1ccc2c(c1)CN(c1ccc3[nH]c(=O)[nH]c3c1)C2=O [Example 112, Methyl 1-oxo-2-(2-oxo-1,3-dihydrobenzimidazol-5-yl)isoindoline-5-carboxylate] | 57 nM |
| Cn1cncc1-c1cc(-c2nc3cc(C(N)=O)ccc3n2-c2ccc3[nH]c(=O)[nH]c3c2)c2ccccc2n1 [Example 113, 2-(2-(1-Methyl-1H-imidazol-5-yl)quinolin-4-yl)-2′-oxo-2′,3′-dihydro-1′H-[1,5′-bibenzo[d]imidazole]-5-carboxamide] | 899 nM |
| CNC(=O)c1ccc2c(c1)nc(C1(c3ccccc3)CC1)n2-c1ccc2[nH]c(=O)[nH]c2c1 [Example 114, N-Methyl-2′-oxo-2-(1-phenylcyclopropyl)-2′,3′-dihydro-1′H-[1,5′-bibenzo[d]imidazole]-5-carboxamide] | 8 nM |
| CNC(=O)c1ccc2c(c1)nc(C1(c3ccc(OC)cc3)CC1)n2-c1ccc2[nH]c(=O)[nH]c2c1 [Example 115, 2-(1-(4-Methoxyphenyl)cyclopropyl)-N-methyl-2′-oxo-2′,3′-dihydro-1′H-[1,5′-bibenzo[d]imidazole]-5-carboxamide] | 96 nM |
| O=c1[nH]c2ccc(S(=O)(=O)N3CCc4ccccc43)cc2[nH]1 [Example 116, 5-(Indolin-1-ylsulfonyl)-1,3-dihydro-2H-benzo[d]imidazol-2-one] | 48 nM |
| CC(=O)N1CCC(NS(=O)(=O)c2ccc3[nH]c(=O)[nH]c3c2)CC1 [Example 117, N-(1-Acetylpiperidin-4-yl)-2-oxo-2,3-dihydro-1H-benzo[d]imidazole-5-sulfonamide] | 8 nM |
| COC(=O)c1ccc(S(=O)(=O)Nc2ccc3[nH]c(=O)[nH]c3c2)cc1 [Example 118, Methyl 4-(N-(2-oxo-2,3-dihydro-1H-benzo[d]imidazol-5-yl)sulfamoyl)benzoate] | 82 nM |
| CC(C)(C)OC(=O)Nc1ccc2c(c1)CCN2C(=O)Nc1ccc2[nH]c(=O)[nH]c2c1 [Example 119, tert-Butyl (1-((2-oxo-2,3-dihydro-1H-benzo[d]imidazol-5-yl)carbamoyl)indolin-5-yl)carbamate] | 113 nM |
| CC(C)c1nc2cc(OCc3ccccc3)ccc2n1-c1ccc2[nH]c(=O)[nH]c2c1 [Example 120, 5-(Benzyloxy)-2-isopropyl-1′,3′-dihydro-2′H-[1,5′-bibenzo[d]imidazol]-2′-one] | 194 nM |
| Nc1ccc2c(c1)CCN2C(=O)Nc1ccc2[nH]c(=O)[nH]c2c1 [Example 121, 5-Amino-N-(2-oxo-2,3-dihydro-1H-benzo[d]imidazol-5-yl)indoline-1-carboxamide] | 65 nM |
| Cc1ccccc1-c1ccccc1C(=O)Nc1ccc2[nH]c(=O)[nH]c2c1 [Example 122, 2′-Methyl-N-(2-oxo-2,3-dihydro-1H-benzo[d]imidazol-5-yl)-[1,1′-biphenyl]-2-carboxamide] | 730 nM |

| Compound | Kd |
| --- | --- |
| O=C(Nc1ccc2[nH]c(=O)[nH]c2c1)c1ccccc1Cc1ccccc1 [Example 123, 2-Benzyl-N-(2-oxo-2,3-dihydro-1H-benzo[d]imidazol-5-yl)benzamide] | 22 nM |
| COc1ccc2c(c1)nc(C(C)C)n2-c1ccc2[nH]c(=O)[nH]c2c1 [Example 124, 2-Isopropyl-5-methoxy-1′,3′-dihydro-2′H-[1,5′-bibenzo[d]imidazol]-2′-one] | 13 nM |
| CC(C)(C)OC(=O)N1CCC(S(=O)(=O)Nc2ccc3[nH]c(=O)[nH]c3c2)CC1 [Example 125, tert-Butyl 4-(N-(2-oxo-2,3-dihydro-1H-benzo[d]imidazol-5-yl)sulfamoyl)piperidine-1-carboxylate] | 20 nM |
| CCOC(=O)c1ccc(NC(=O)Nc2ccc3[nH]c(=O)[nH]c3c2)cc1 [Example 126, Ethyl 4-(3-(2-oxo-2,3-dihydro-1H-benzo[d]imidazol-5-yl)ureido)benzoate] | 9 nM |
| O=C(Nc1cccc(F)c1)Nc1ccc2[nH]c(=O)[nH]c2c1 [Example 127, 1-(3-Fluorophenyl)-3-(2-oxo-2,3-dihydro-1H-benzo[d]imidazol-5-yl)urea] | 26 nM |
| COc1ccccc1N1CCN(C(=O)Nc2ccc3[nH]c(=O)[nH]c3c2)CC1 [Example 128, 4-(2-Methoxyphenyl)-N-(2-oxo-2,3-dihydro-1H-benzo[d]imidazol-5-yl)piperazine-1-carboxamide] | 14 nM |
| O=C(Nc1ccc2[nH]c(=O)[nH]c2c1)N1CCc2ccc(Cl)cc21 [Example 129, 6-Chloro-N-(2-oxo-2,3-dihydro-1H-benzo[d]imidazol-5-yl)indoline-1-carboxamide] | 188 nM |
| Cn1ccc(-c2cccc(NC(=O)c3ccc4[nH]c(=O)[nH]c4c3)c2)n1 [Example 130, N-(3-(1-Methyl-1H-pyrazol-3-yl)phenyl)-2-oxo-2,3-dihydro-1H-benzo[d]imidazole-5-carboxamide] | 781 nM |
| CNC(=O)c1ccc2c(c1)nc(C1CCC(OC)CC1)n2-c1ccc2[nH]c(=O)[nH]c2c1 (stereo not shown) [Example 131, 2-(4-Methoxycyclohexyl)-N-methyl-2′-oxo-2′,3′-dihydro-1′H-[1,5′-bibenzo[d]imidazole]-5-carboxamide] | 10 nM |
| COc1cnccc1C(=O)Nc1ccc2[nH]c(=O)[nH]c2c1 [Example 132, 3-Methoxy-N-(2-oxo-2,3-dihydro-1H-benzo[d]imidazol-5-yl)isonicotinamide] | < 1 nM |
| CNC(=O)c1ccc(C(=O)Nc2ccc3[nH]c(=O)[nH]c3c2)cn1 [Example 133, N2-Methyl-N5-(2-oxo-2,3-dihydro-1H-benzo[d]imidazol-5-yl)pyridine-2,5-dicarboxamide] | 121 nM |
| O=c1[nH]c2ccc(NS(=O)(=O)C3CCNCC3)cc2[nH]1 [Example 134, N-(2-Oxo-2,3-dihydro-1H-benzo[d]imidazol-5-yl)piperidine-4-sulfonamide] | 7 nM |
| O=C(Nc1ccc2[nH]c(=O)[nH]c2c1)N1CCN(Cc2ccc(Cl)cc2)CC1 [Example 135, 4-(4-Chlorobenzyl)-N-(2-oxo-2,3-dihydro-1H-benzo[d]imidazol-5-yl)piperazine-1-carboxamide] | 7 nM |
| O=C(Nc1ccc2[nH]c(=O)[nH]c2c1)c1ccccc1-c1ccncc1 [Example 136, N-(2-Oxo-2,3-dihydro-1H-benzo[d]imidazol-5-yl)-2-(pyridin-4-yl)benzamide] | 79 nM |
| O=c1[nH]c2ccc(NS(=O)(=O)c3coc4ccccc34)cc2[nH]1 [Example 137, N-(2-Oxo-2,3-dihydro-1H-benzo[d]imidazol-5-yl)benzofuran-3-sulfonamide] | 22 nM |
| COc1cccc(-c2ncccc2C(=O)Nc2ccc3[nH]c(=O)[nH]c3c2)c1 [Example 138, 2-(3-Methoxyphenyl)-N-(2-oxo-2,3-dihydro-1H-benzo[d]imidazol-5-yl)nicotinamide] | 109 nM |
| O=C(NC1CCN(Cc2ccccc2)CC1)c1ccc2[nH]c(=O)[nH]c2c1 [Example 139, N-(1-Benzylpiperidin-4-yl)-2-oxo-2,3-dihydro-1H-benzo[d]imidazole-5-carboxamide] | 4 nM |
| Nc1ccc2c(c1)CCN2c1ccc2[nH]c(=O)[nH]c2c1 [Example 140, 5-(5-Aminoindolin-1-yl)-1,3-dihydro-2H-benzo[d]imidazol-2-one hydrochloride] | 168 nM |
| CC(=O)Nc1ccc2c(c1)CCN2c1ccc2[nH]c(=O)[nH]c2c1 [Example 141, N-(1-(2-Oxo-2,3-dihydro-1H-benzo[d]imidazol-5-yl)indolin-5-yl)acetamide] | 53 nM |
| O=C(Nc1cccc(-c2cnco2)c1)c1ccc2[nH]c(=O)[nH]c2c1 [Example 142, N-(3-(Oxazol-5-yl)phenyl)-2-oxo-2,3-dihydro-1H-benzo[d]imidazole-5-carboxamide] | 11 nM |

From patent US11787802B2, “Dihydrobenzimidazolones for medical treatment” (C4 Therapeutics, Inc., priority 2017, dated 2023)
